The values below come from patent US11179455B2, “Use of a growth hormone secretagogue peptide as a vaccine adjuvant” (priority 2016, dated 2021).

Bridge positions count the residues as written; N and C are the ends. Square brackets hold non-standard residues; d marks the D form. Ends that are not written are not given here.

The test system of assay [1] is P0. The experiment in a line: Anti-P0 IgM response to P0-TT in clarias. The note with it: i.p.; P0-TT 1 μg/g + 20 μg peptide per animal, Montanide ISA 50; vs P0-TT without peptide; day 28. Format: in vivo, Clarias gariepinus. The method, then: […]. For the experiment, 4 study groups of C. gariepinus were formed, with 12 animals in each one. These animals were immunized by i.p. route with 1 μg of the P0-TT protein per gram of animal weight (Group 2) or with the same dose of the chimeric protein P0-TT (1 μg/g of animal weight) co-administered with 20 μg of either GHRP-6 or A233 per animal (Groups 3 and 4, respectively), in a total volume of 120 μL. The control group (Group 1) received the same volume of PBS. The immunogens corresponding to all groups were emulsified with Montanide ISA 50 oily adjuvant. The immunization was performed under the same conditions, on days 0 and 14 of the administration schedule. Blood samples were taken at days 0, 21, 28 and 35 counted from the start of the experiment.

The test system of a further assay is my32. The experiment in a line: Anti-my32 IgM response to P0-my32 in tilapia. The class given is in vivo, Oreochromis niloticus. The note with it: i.p., day 28; for Anti-my32 IgM antibody titers: P0-my32 1 μg/g co-administrated with 20 μg peptide, Montanide ISA 50, vs P0-my32. The source says:
(§1) The chimeric protein P0-my32 was generated by cloning the complementary deoxyribonucleic acid (cDNA) encoding a 35 amino acid peptide of the L. salmonis P0 ribosomal protein fused to the N-terminal end of the cDNA encoding the my32 protein of the same ectoparasite (Carpio et al., 2013; Exp. Parasitol 135: 188-199), in a vector designed for the induced expression of genes of interest in the host bacterium E. coli. This protein was produced in the bacterium and purified, as a fusion protein with a tail of histidine, by metal chelate affinity chromatography.
(§2) For the accomplishment of the immunization experiment, 6 study groups of male juveniles of Oreochromis niloticus, were formed, with 15 animals each. In all groups, the immunogen was administered by i.p. route, adjuvanted with Montaide ISA 50.
(§3) The experimental groups received the following immunogens:
(§4) Group 2: P0-my32 (1 μg/g of fish weight)
(§5) Group 3: P0-my32 (1 μg/g of fish weight) co-administrated with 20 μg GHRP-6
(§6) Group 4: P0-my32 (1 μg/g of fish weight) co-administrated with 20 μg A233
(§7) Group 5: P0-my32 (1 μg/g of fish weight). The fish in this group were fed with feed formulated with 100 μg of GHRP-6 per kg of feed, twice daily, for one week before and one week after the administration of my32 in injections.
(§8) During the course of the experiment, the fish in groups 1 to 4 were fed twice daily with a balanced unmedicated commercial formula, at the rate of 1% of their body weight. Immunizations were performed on days 0 and 14 of the schedule. Blood samples were taken at days 0, 21, 28 and 35 from the start of the experiment.

Assay [2] concerns OVA. The experiment in a line: Humoral immune response against OVA in mice, A233 co-administered. The class given is in vivo, BALB/c mice. The conditions noted are these: i.p.; 5 μg OVA + 10 μg A233/animal, Freund's adjuvant; vs OVA alone; day 22. The method, then: To evaluate whether the peptide A233 exerts an adjuvant effect on OVA, 18 female BALB/c mice were used. Mice received 150 μL of immunogen in all groups, by i.p route, which was given to the animals on days 1 and 15 of the immunization schedule. Blood samples were taken at days 0 (preimmune serum), 8, 15, 22, 36, 43 and 50. The titers of total IgG present in the sera were evaluated. The animals were immunized with 5 μg OVA/animal and 10 μg A233/animal (Group 2), or with 5 μg of OVA/animal (Group 3). The control group was injected with PBS (Group 1). All immunogens were emulsified with Freund's adjuvant.

The subject of assay [3] is P0. The experiment in a line: Anti-P0 IgM response to P0-my32 in tilapia. Format: in vivo, Oreochromis niloticus. The note with it: i.p., day 28; for Anti-P0 IgM titer: P0-my32 1 μg/g co-administrated with 20 μg peptide, Montanide ISA 50, vs P0-my32.
Source text: as §1, §2, §3, §4, §5, §6, §7, §8

The subject of a further assay is tilapia leukocytes. The note with it: in vitro; cited from earlier work.
The test system of another assay is tilapia larvae. The note with it: immersion baths; cited from earlier work.
A further assay has as its system activated macrophages. The conditions noted are these: mouse, in vivo; cited from earlier work.
The subject of assay [4] is C2 antigen, a Dengue virus capsid protein. Description: Humoral immune response against C2 antigen in mice, GHRP-6 co-administered. The conditions noted are these: s.c.; 10 μg C2 + 10 μg GHRP-6, aluminum hydroxide; vs C2 without GHRP-6; day 28. The class given is in vivo, BALB/c mice. The method, then: The C2 antigen, a Dengue virus capsid protein, was obtained as a recombinant protein in Escherichia coli, with a molecular weight of 15 kDa. To evaluate the humoral and cellular immune response in mice vaccinated with C2, in presence or absence of GHRP-6, 24 female BALB/c mice, 6-weeks old, were selected. They were distributed into 3 groups. Each animal was given an immunogen, according to the experimental group:
Group 2: 10 μg C2 co-administrated with 10 μg GHRP-6
In all groups, the immunogens further comprised aluminum hydroxide, also known as alum. Immunizations were performed by s.c route, on days 0, 15 and 30 of the immunization schedule. Blood samples were taken at days 0 (pre-immune), 7, 16, 21, 28 and 35, to assess total IgG titers.

The subject of assay [5] is peptide P0 of R. sanguineus. Description: Humoral immune response against peptide P0 of R. sanguineus in mice, GHRP-6 co-administered. Format: in vivo, BALB/c mice. The conditions noted are these: i.p.; 100 μg P0 + 200 μg GHRP-6, Freund's adjuvant; vs P0 without GHRP-6; day 36. How it is done: The peptide P0 is a fragment corresponding to the region of less sequence identity between the ribosomal protein P0 of the tick R. sanguineus and its mammalian host. To evaluate the humoral immune response stimulated by the co-administration of GHRP-6 and P0, 24 female, 6-week old BALB/c mice were selected and divided into three groups of 8 mice. Each animal received 150 μL of immunogen, by i.p route, on days 1, 15 and 29 of the immunization schedule. In the first immunization FCA was employed, and FIA was used in the other two administrations.
Group 3. 100 μg of P0 co-administrated with 200 μg of GHRP-6.
Blood samples were taken on days 0 (pre-immune serum), 8, 16, 21, 28, 36, 43, 50 and 58, to determine the levels of total IgG.

The test system of assay [6] is OVA. Description: Humoral immune response against OVA in mice, GHRP-6 co-administered. Format: in vivo, BALB/c mice. The conditions noted are these: for Total IgG titers against OVA: GHRP-6 10 μg + OVA 5 μg/animal, Freund's adjuvant, vs OVA without GHRP-6. How it is done:
Thirty-six female BALB/c mice were used. Six study groups, with 6 animals each, were separated. Three groups were immunized by s.c route and the rest of them were treated by i.p route. In all groups, the immunogens were emulsified with Freund's adjuvant.
Group 1: Placebo (phosphate buffered saline, abbreviated PBS). s.c route.
Group 2: Placebo (PBS). i.p. route.
Group 3: GHRP-6 at 10 μg/animal and OVA at 5 μg/animal. s.c. route.
Group 4 GHRP-6 at 10 μg/animal and OVA at 5 μg/animal. i.p route.
Group 5: OVA 5 μg/animal. s.c. route.
Group 6: OVA 5 μg/animal. i.p. route.
Mice received 150 μL of the immunogen in all groups, which was administered to the animals on days 1 and 15 of the immunization schedule. Blood extractions were performed on days 0 (pre-immune serum), 8, 15, 22, 36, 43 and 50. Total IgG titers, IgG1 and IgG2a were evaluated. Complete Freund's Adjuvant (CFA) was used in the first immunization and Incomplete Freund's Adjuvant (IFA) in the next one. The animals of the group immunized with GHRP-6 and OVA, by s.c route, had higher titers (with statistical significance: p<0.05) than those of the group receiving OVA without GHRP-6, by the same route, on days 22, 36, 43 and 50 of the experiment (FIG. 1A). Animals injected with the same immunogens, but by i.p. route, had the same behavior on days 36 and 43 of the experiment (FIG. 1 B).

The test system of assay [7] is Aeromonas hydrophila. Description: Controlled challenge with Aeromonas hydrophila in immunized common carp. Format: in vivo, Cyprinus carpio. The conditions noted are these: challenge on day 21 by i.p injection of LD50 of the bacterium; mortality recorded for 7 days. The method, then: The experiment was carried out with common carp (C. carpio) of 30±5 g. These animals were kept in 250 L aquaria, at a temperature of 30±2° C. Three experimental groups, of 20 carps each, were established and the animals were injected by i.p. route with:
Group 1: PBS+Montanide ISA 50
Group 2: Inactivated A. hydrophila cells (1×10^8 CFU)+Montanide ISA 50
(§9) Group 3: Inactivated A. hydrophila cells (1×10^8 CFU)+20 μg GHRP-6/fish+Montanide ISA 50.
Fish were injected on day 0 and 14. The challenge was performed on day 21, by i.p injection of the lethal dose 50 (LD50) of the bacterium, and the mortality in each group was recorded for 7 days. The relative survival rate (RSR) was calculated as: RSR(%)=(% mortality of controls−% mortality of treated animals)/(% mortality of controls)×100.

In another assay the test system is juvenile tilapia. The note with it: orally fed; cited from earlier work.
Assay [8] concerns Aeromonas hydrophila. Description: Agglutinating antibodies against Aeromonas hydrophila in common carp. The note with it: i.p.; inactivated cells 1×10^8 CFU + 20 μg GHRP-6/fish + Montanide ISA 50; vs bacterium without GHRP-6; day 21. Format: in vivo, Cyprinus carpio. The method, then: The experiment was carried out with carps (C. carpio) of 40±10 g. These animals were kept in 600 L aquaria, at a temperature of 28±2° C. Three experimental groups, of 10 carps each, were established and injected by i.p. route with the following immunogens:
Group 1: PBS+Montanide ISA 50.
Group 2: Inactivated A. hydrophila cells (1×10^8 Colony Forming Units, abbreviated CFU)+Montanide ISA 50.
as §9
Fish were injected on days 0 and 14, and blood samples were collected from the caudal vein on days 0 and 21. […] The preparation of A. hydrophila cells and the measurement of antibody titers were performed according to previous reports (Yin et al. ((1996) Fish & Shellfish Immunol. 6, 57-69).

The subject of another assay is rainbow trout leucocytes. The conditions noted are these: cited from earlier work.
The next assay concerns newly hatching chickens. The conditions noted are these: dose of 100 ng in ovo, day 10 of incubation; cited from earlier work.
[9] abbreviates: serum of day 36, s.c and i.p routes, OVA with vs without GHRP-6.
Setting [10] is: Group 3 (with GHRP-6) vs Group 2.

Consider “A233: growth hormone secretagogue peptide, structural analogue of GHRP-6 (GKFDLSPEHQ; lactam 2-4 (inferred))”, for which the “Anti-P0 IgM antibody titers” value in the assay on P0 [1] is “same effect”. Further, the “Anti-my32 IgM antibody titers” value in the assay with my32 was “increase”. Further, in the assay on OVA [2], the “Anti-OVA antibody titers (total IgG)” value was “significant increase”. The “Anti-P0 IgM titer” value in the assay with P0 [3] was “increase”. For the same substance, the “Production of indicators of phagocytic activity, such as superoxide anion” value with tilapia leukocytes is “stimulated”. For the same substance, in the assay on tilapia larvae, the “Antioxidant defense, enzyme superoxide dismutase” value is “stimulates”; the Antiprotease activity entry is on record as “stimulates”; the Lectin titers entry is recorded as “stimulates”.
For GHRP-2, in the assay with activated macrophages, the Arthritis result is “attenuated”, the “Release of interleukin 6 (IL-6) from activated macrophages” value is “significantly inhibited” and the “Release of nitric oxide from activated macrophages” value was “significantly inhibited”.
With “His-D-Trp-Ala-Trp-D-Phe-Lys-NH2 (H[dW]AW[dF]K-NH2) [GHRP-6, synthetic growth hormone releasing peptide, hexamer, used as molecular adjuvant]”, the “Anti-C2 IgG titer” value in [4] was “significant increase”. Besides, the “Anti-P0 IgG titers” value in [5] is listed as “significant increase”. Besides, in the assay on OVA [6] (i.p. route, days 36 and 43), the “Total IgG titers against OVA” value is given as “same behavior”. Besides, in the assay with OVA [6] (intraperitoneal route, mean of the six animals in the group), the IgG1/IgG2a result was “significantly superior”. For the same substance, the “Total IgG titers against OVA” value in the assay on OVA [6] (s.c. route, days 22, 36, 43 and 50, p<0.05) is reported as “higher titers”. Also, in the assay with OVA [6] (setting [9]), the IgG1 titers result is given as “higher” and the IgG2a titers result is given as “No significant differences”. For the same substance, in the assay on P0 [1], the “Anti-P0 IgM antibody titers” value is “increase”. The “Number of anti-my32 responder animals, IgM titers greater than 1:1000” value in the assay on my32 (setting [10]) was “higher”. Further, the “Anti-my32 IgM antibody titers” value with my32 was “increase”. Further, the “Relative survival rate (RSR)” value in the assay with Aeromonas hydrophila [7] is 95%. In the assay on juvenile tilapia, the Lectin titers entry is given as “increase” and the “Number of intraepithelial lymphocytes of the gastric mucosa” value is “increase”. Besides, the “Number of anti-P0 responder animals, IgM titers greater than 1:1000” value in the assay with P0 [3] (setting [10]) is given as “higher”. For the same substance, the “Anti-P0 IgM titer” value in the assay with P0 [3] was “same effect”. Further, the “Titers of agglutinating antibodies against A. hydrophila” value with Aeromonas hydrophila [8] was “significantly higher”.
In the case of [D-Lys3]-GHRP-6, the “Production of reactive oxygen species (O^2′—) after prior incubation with antagonist” value with rainbow trout leucocytes (prior incubation before ghrelin) is “decreased”.
Consider “ghrelin: endogenous ligand for the growth hormone secretagogues receptor (GHS-R) (GSSFLSPEHQRVQQRKESKKPPAKLQPR; ends and bridges not checked; UniProt Q9UBU3 24-51, looked up)”, for which, in the assay with activated macrophages, the Arthritis entry was “attenuated”, the “Release of interleukin 6 (IL-6) from activated macrophages” value was “significantly inhibited” and the “Release of nitric oxide from activated macrophages” value was “significantly inhibited”. Moreover, in the assay on rainbow trout leucocytes (in vitro), the “Levels of GH messenger ribonucleic acid” value is “increases”, the “Production of superoxide anion” value is “increases” and the Superoxide dismutase entry was “increases”. Moreover, in the assay on newly hatching chickens, the “Count of heterophil, basophils and eosinophils, and heterophil/lymphocyte ratio” value is given as “increase”; the Lymphocytes result was “decreased”.
